Assay [1] deals with T1, DDR1 (Homo sapiens, UniProt Q08345). Put plainly: DDR1 cell based assay (PathHunter U2OS DDR1 assay). The settings on record: U2OS-DDR1 cells, bovine Type II Collagen 20 μg/ml. Also on record: host or cells: U2OS-DDR1 (PathHunter). In a few lines:
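U2OS-DDR1 PathHunter cells preincubated 30 min with compound, then stimulated overnight at 37 °C with 20 μg/ml bovine type II collagen. Luminescent complementation signal read after 1 h detection at room temperature; normalized to vehicle (0%) and collagen-only (100%) controls, IC50 from variable-slope sigmoidal fit.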

The target in assay [2] is T1, DDR1. The assay can be described thus: DDR1 binding assay (LanthaScreen Europium Kinase Binding assay). Details: purchased Carna Biosciences. The settings on record: binding assay, 5 nM DDR1, 20 nM Kinase Tracer 178; Ki from IC50 by Cheng-Prusoff; read-out: Ki DDR1. In a few lines: (§1)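 Compounds incubated 1 h at room temperature with 5 nM kinase, Kinase Tracer 178 (20 nM for DDR1, 10 nM for DDR2) and 2 nM Eu-anti-GST antibody in pH 7.5 HEPES/MgCl2/EGTA/BRIJ35 buffer. TR-FRET 665/615 nm ratio read after 340 nm excitation; IC50 from 4-parameter fit, converted to Ki by Cheng-Prusoff.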
On the technique in general: TR-FRET usually uses a lanthanide donor and a delayed reading to cut background.

The target in a further assay is T2, DDR2 (Homo sapiens, UniProt Q16832).
T2 sequence (Q16832 22-855): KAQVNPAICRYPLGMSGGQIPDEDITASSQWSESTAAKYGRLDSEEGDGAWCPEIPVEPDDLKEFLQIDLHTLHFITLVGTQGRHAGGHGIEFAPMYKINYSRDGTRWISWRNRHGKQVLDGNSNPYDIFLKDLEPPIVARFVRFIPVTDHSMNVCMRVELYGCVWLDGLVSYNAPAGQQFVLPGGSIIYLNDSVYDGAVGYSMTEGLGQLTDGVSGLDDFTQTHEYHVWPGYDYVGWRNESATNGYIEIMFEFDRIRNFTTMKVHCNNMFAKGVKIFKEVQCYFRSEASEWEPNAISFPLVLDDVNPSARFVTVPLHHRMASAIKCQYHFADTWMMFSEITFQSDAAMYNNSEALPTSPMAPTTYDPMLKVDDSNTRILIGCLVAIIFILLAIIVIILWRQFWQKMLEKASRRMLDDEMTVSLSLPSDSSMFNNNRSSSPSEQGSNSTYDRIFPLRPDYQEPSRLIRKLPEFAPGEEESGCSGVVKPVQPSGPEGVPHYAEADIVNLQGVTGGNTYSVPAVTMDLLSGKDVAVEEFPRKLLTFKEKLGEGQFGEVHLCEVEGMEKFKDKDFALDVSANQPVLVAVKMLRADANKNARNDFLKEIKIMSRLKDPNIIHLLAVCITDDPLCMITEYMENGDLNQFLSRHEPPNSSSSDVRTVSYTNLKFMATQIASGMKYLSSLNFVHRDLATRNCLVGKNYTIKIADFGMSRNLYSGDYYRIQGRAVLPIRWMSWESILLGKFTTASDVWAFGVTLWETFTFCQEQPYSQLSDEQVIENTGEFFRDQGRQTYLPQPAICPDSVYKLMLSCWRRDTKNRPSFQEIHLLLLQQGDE
The assay can be described thus: DDR2 binding assay (LanthaScreen Europium Kinase Binding assay). Details: purchased Life Technologies. As to conditions: binding assay, 5 nM DDR2, 10 nM Kinase Tracer 178; Ki from IC50 by Cheng-Prusoff; read-out: Ki DDR2. In a few lines: as §1

T1 sequence (Q08345 19-913): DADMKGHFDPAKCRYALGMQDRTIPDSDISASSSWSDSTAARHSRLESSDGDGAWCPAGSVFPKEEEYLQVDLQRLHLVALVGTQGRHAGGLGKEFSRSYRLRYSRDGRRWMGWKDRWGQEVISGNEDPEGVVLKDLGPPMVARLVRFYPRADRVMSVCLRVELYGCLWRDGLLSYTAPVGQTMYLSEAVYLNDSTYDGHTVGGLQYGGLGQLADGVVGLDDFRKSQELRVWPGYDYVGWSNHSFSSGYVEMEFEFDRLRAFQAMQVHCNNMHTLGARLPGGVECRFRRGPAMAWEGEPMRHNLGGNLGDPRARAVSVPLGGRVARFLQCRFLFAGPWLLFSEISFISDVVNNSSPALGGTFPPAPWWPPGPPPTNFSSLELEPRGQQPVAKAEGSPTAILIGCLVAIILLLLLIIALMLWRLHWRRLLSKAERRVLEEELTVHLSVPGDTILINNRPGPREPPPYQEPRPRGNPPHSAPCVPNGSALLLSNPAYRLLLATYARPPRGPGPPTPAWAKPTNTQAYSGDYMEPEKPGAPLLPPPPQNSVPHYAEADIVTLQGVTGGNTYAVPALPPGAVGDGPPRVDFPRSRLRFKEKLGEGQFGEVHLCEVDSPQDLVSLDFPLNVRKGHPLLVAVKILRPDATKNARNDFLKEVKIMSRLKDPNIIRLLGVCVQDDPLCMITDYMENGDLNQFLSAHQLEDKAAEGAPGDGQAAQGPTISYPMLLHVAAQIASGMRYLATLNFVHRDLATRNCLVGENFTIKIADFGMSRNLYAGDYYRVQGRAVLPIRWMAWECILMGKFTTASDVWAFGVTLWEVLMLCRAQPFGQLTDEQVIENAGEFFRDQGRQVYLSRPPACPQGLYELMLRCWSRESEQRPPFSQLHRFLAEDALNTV

What is called IC50 is the concentration that gives 50% inhibition. Read a low IC50 as greater potency. The term Ki denotes a measure of affinity in units of concentration, obtained from inhibition or displacement. Take `Cc1n[nH]c2ncc(CN3CCc4c(C(=O)Nc5cc(C(C)(C)C)no5)csc4C3)cc12` [Example 147, N-(3-(tert-butyl)isoxazol-5-yl)-6-((3-methyl-1H-pyrazolo[3,4-b]pyridin-5-yl)methyl)-4,5,6,7-tetrahydrothieno[2,3-c]pyridine-3-carboxamide]: the IC50 against DDR1 [1] is < 25 nM. Also, the Ki on DDR1 [2] and at DDR2 was < 25 nM throughout.
On to `Cc1n[nH]c2ncc(CN3CCc4c(C(=O)Nc5cc(C6CC6)on5)csc4C3)cc12` [Example 148, N-(5-cyclopropylisoxazol-3-yl)-6-((3-methyl-1H-pyrazolo[3,4-b]pyridin-5-yl)methyl)-4,5,6,7-tetrahydrothieno[2,3-c]pyridine-3-carboxamide], for which the IC50 against DDR1 [1] was < 25 nM. Further, the inhibition constant (Ki) at DDR1 [2] and at DDR2 was < 25 nM in each case.
With `CN1CCN(c2n[nH]c3ncc(CN4CCc5c(C(=O)Nc6cncc(C(F)(F)F)c6)csc5C4)cc23)CC1` [Example 149, 6-((3-(4-methylpiperazin-1-yl)-1H-pyrazolo[3,4-b]pyridin-5-yl)methyl)-N-(5-(trifluoromethyl)pyridin-3-yl)-4,5,6,7-tetrahydrothieno[2,3-c]pyridine-3-carboxamide], the IC50 against DDR1 [1] is 25 to 50 nM. Moreover, the Ki on DDR1 [2] and at DDR2 was < 25 nM each time.
In turn, `O=C(Nc1cncc(C(F)(F)F)c1)c1csc2c1CCN(Cc1cnn3ccncc13)C2` [Example 154, 6-(pyrazolo[1,5-a]pyrazin-3-ylmethyl)-N-(5-(trifluoromethyl)pyridin-3-yl)-4,5,6,7-tetrahydrothieno[2,3-c]pyridine-3-carboxamide] had an IC50 on DDR1 [1] of 50 to 80 nM. Further, the Ki on DDR1 [2] and at DDR2 was < 25 nM each time.
As for `O=C(Nc1cncc(C(F)(F)F)c1)c1csc2c1CCN(Cc1ncnc3[nH]ccc13)C2` [Example 155, 6-((7H-pyrrolo[2,3-d]pyrimidin-4-yl)methyl)-N-(5-(trifluoromethyl)pyridin-3-yl)-4,5,6,7-tetrahydrothieno[2,3-c]pyridine-3-carboxamide], at DDR1 [1], the IC50 lay within 25 to 50 nM. The inhibition constant (Ki) at DDR1 [2] and at DDR2 was < 25 nM in each case.
Consider `CC(C)(C)c1cc(NC(=O)c2csc3c2CCN(Cc2cnc4ccnn4c2)C3)on1` [Example 156, N-(3-(tert-butyl)isoxazol-5-yl)-6-(pyrazolo[1,5-a]pyrimidin-6-ylmethyl)-4,5,6,7-tetrahydrothieno[2,3-c]pyridine-3-carboxamide], for which the IC50 against DDR1 [1] was < 25 nM. Besides, the Ki at DDR1 [2] and at DDR2 was < 25 nM throughout.
Take `Cc1n[nH]c2ncc(CN3CCc4c(C(=O)Nc5cc(CN6CC[C@@H](N(C)C)C6)cc(C(F)(F)F)c5)csc4C3)cc12` [Example 157, (R)—N-(3-((3-(dimethylamino)pyrrolidin-1-yl)methyl)-5-(trifluoromethyl)phenyl)-6-((3-methyl-1H-pyrazolo[3,4-b]pyridin-5-yl)methyl)-4,5,6,7-tetrahydrothieno[2,3-c]pyridine-3-carboxamide]: the concentration for half-maximal inhibition (IC50) on DDR1 [1] was in the range of 25 to 50 nM. Further, the Ki at DDR1 [2] is < 25 nM; on DDR2, 25 to 50 nM.
Consider `CN(C)[C@@H]1CCN(Cc2cc(NC(=O)c3csc4c3CCN(Cc3cnc5[nH]ccc5c3)C4)cc(C(F)(F)F)c2)C1` [Example 159, (R)-6-((1H-pyrrolo[2,3-b]pyridin-5-yl)methyl)-N-(3-((3-(dimethylamino)pyrrolidin-1-yl)methyl)-5-(trifluoromethyl)phenyl)-4,5,6,7-tetrahydrothieno[2,3-c]pyridine-3-carboxamide], for which, at DDR1 [1], the IC50 lay in the range of 25 to 50 nM. In addition, the inhibition constant Ki on DDR1 [2] and at DDR2 was < 25 nM each time.
In the case of `CN(C)[C@@H]1CCN(Cc2cc(NC(=O)c3csc4c3CCN(Cc3cnc5cnccn35)C4)cc(C(F)(F)F)c2)C1` [Example 160, (R)-N-(3-((3-(dimethylamino)pyrrolidin-1-yl)methyl)-5-(trifluoromethyl)phenyl)-6-(imidazo[1,2-a]pyrazin-3-ylmethyl)-4,5,6,7-tetrahydrothieno[2,3-c]pyridine-3-carboxamide], at DDR1 [1], the IC50 is 50 to 80 nM. Also, the Ki on DDR1 [2] and at DDR2 was < 25 nM each time.
`CN(C)[C@@H]1CCN(Cc2cc(NC(=O)c3csc4c3CCN(Cc3cnc5ccnn5c3)C4)cc(C(F)(F)F)c2)C1` [Example 161, (R)-N-(3-((3-(dimethylamino)pyrrolidin-1-yl)methyl)-5-(trifluoromethyl)phenyl)-6-(pyrazolo[1,5-a]pyrimidin-6-ylmethyl)-4,5,6,7-tetrahydrothieno[2,3-c]pyridine-3-carboxamide]: the IC50 against DDR1 [1] was in the range of 25 to 50 nM. Moreover, the Ki at DDR1 [2] and on DDR2 was < 25 nM in each case.
For `Cc1cccc2ncc(C(=O)N3CCc4c(C(=O)Nc5cc(CN6CC[C@@H](N(C)C)C6)cc(C(F)(F)F)c5)csc4C3)n12` [Example 162, (R)—N-(3-((3-(dimethylamino)pyrrolidin-1-yl)methyl)-5-(trifluoromethyl)phenyl)-6-(5-methylimidazo[1,2-a]pyridine-3-carbonyl)-4,5,6,7-tetrahydrothieno[2,3-c]pyridine-3-carboxamide], the concentration for half-maximal inhibition (IC50) on DDR1 [1] lay in the range of 25 to 50 nM. Moreover, the Ki was < 25 nM on DDR1 [2] and 25 to 50 nM at DDR2.
Consider `Cc1n[nH]c2ncc(CN3CCc4c(C(=O)Nc5cc(OCCN6CCCC6)cc(C(F)(F)F)c5)csc4C3)cc12` [Example 163, 6-[(3-methyl-1H-pyrazolo[3,4-b]pyridin-5-yl)methyl]-N-[3-(2-pyrrolidin-1-ylethoxy)-5-(trifluoromethyl)phenyl]-5,7-dihydro-4H-thieno[2,3-c]pyridine-3-carboxamide], for which, at DDR1 [1], the half-maximal inhibitory concentration (IC50) is < 25 nM. Further, the Ki at DDR1 [2] and on DDR2 was < 25 nM throughout.
On to `O=C(Nc1cc(OCCN2CCCC2)cc(C(F)(F)F)c1)c1csc2c1CCN(Cc1cnc3[nH]ncc3c1)C2` [Example 164, 6-((1H-pyrazolo[3,4-b]pyridin-5-yl)methyl)-N-(3-(2-(pyrrolidin-1-yl)ethoxy)-5-(trifluoromethyl)phenyl)-4,5,6,7-tetrahydrothieno[2,3-c]pyridine-3-carboxamide], for which the IC50 against DDR1 [1] is < 25 nM. Also, the Ki on DDR1 [2] and at DDR2 was < 25 nM each time.
Consider `CN1CC2(C1)CN(c1ccc3ncc(C(=O)N4CCc5c(C(=O)Nc6cccc(C(F)(F)F)c6)csc5C4)n3c1)C2` [Example 166, 6-(6-(6-methyl-2,6-diazaspiro[3.3]heptan-2-yl)imidazo[1,2-a]pyridine-3-carbonyl)-N-(3-(trifluoromethyl)phenyl)-4,5,6,7-tetrahydrothieno[2,3-c]pyridine-3-carboxamide], for which the IC50 against DDR1 [1] fell in the range of 50 to 80 nM. Further, the Ki on DDR1 [2] and at DDR2 was < 25 nM each time.
In turn, `CN1CC=C(c2ccc3ncc(C(=O)N4CCc5c(C(=O)Nc6cccc(C(F)(F)F)c6)csc5C4)n3c2)CC1` [Example 167, 6-(6-(1-methyl-1,2,3,6-tetrahydropyridin-4-yl)imidazo[1,2-a]pyridine-3-carbonyl)-N-(3-(trifluoromethyl)phenyl)-4,5,6,7-tetrahydrothieno[2,3-c]pyridine-3-carboxamide] came in with an IC50 against DDR1 [1] of 25 to 50 nM. The Ki at DDR1 [2] and on DDR2 was < 25 nM throughout.
In turn, `CN1CCN(c2ccc3ncc(C(=O)N4CCc5c(C(=O)Nc6cc(C(C)(C)C)no6)csc5C4)n3c2)CC1` [Example 168, N-(3-(tert-butyl)isoxazol-5-yl)-6-(6-(4-methylpiperazin-1-yl)imidazo[1,2-a]pyridine-3-carbonyl)-4,5,6,7-tetrahydrothieno[2,3-c]pyridine-3-carboxamide] returned an IC50 at DDR1 [1] of 25 to 50 nM. Further, the Ki at DDR1 [2] and on DDR2 was < 25 nM throughout.
Consider `Cn1nc(NC(=O)c2csc3c2CCN(Cc2cnc4[nH]ccc4c2)C3)cc1C(F)(F)F` [Example 169, 6-((1H-pyrrolo[2,3-b]pyridin-5-yl)methyl)-N-(1-methyl-5-(trifluoromethyl)-1H-pyrazol-3-yl)-4,5,6,7-tetrahydrothieno[2,3-c]pyridine-3-carboxamide], for which the IC50 on DDR1 [1] is < 25 nM. The Ki at DDR1 [2] and at DDR2 was < 25 nM throughout.

The values above are taken from US20240391936A1, “TETRAHYDROTHIENO PYRIDINE DERIVATIVES AS DDRS INHIBITORS” (CHIESI FARMACEUTICI S.P.A., priority 2021, published 2024).
